In general, inhibition refers to the drop in the measured response relative to a control, in per cent.

What all share (format): cell-based
The subject of one assay is T-47D. Put plainly: NCI-60 one-dose SRB screening. To be noted: Homo sapiens, T47D, Breast Cancer, 10 µM one dose, 48 h, read-out: growth percentage. As to the method:
(§1) The structures of the synthesized compounds 6a–h, 12a–c, 11, 13a–c, and 14a–c were submitted to the National Cancer Institute’s Developmental Therapeutics Program (NCI-DTP), and all of them were selected for preliminary in vitro anticancer activity screening against NCI-59 human cancer cell lines at a concentration of 10 µM, using the sulforhodamine B (SRB) assay to determine the growth percentage and cell viability.
(§2) The in vitro NCI-60 cell line screening assay was conducted at the National Cancer Institute (NCI), Bethesda, USA against 59 cancer cell lines representing 9 types of cancers, as reported earlier. Briefly, the human cancer cell lines were grown in RPMI 1640 medium containing 5% fetal bovine serum and 2 mM L-glutamine and inoculated into 96-well microtiter plates in 100 μL (5000 to 40,000 cells/well). Then, the plates were incubated at 37 °C, 5% CO2, 95% air, and 100% relative humidity for 24 h. After that, two plates of each cell line were fixed in situ with TCA, to represent cell population at time zero (Tz). The tested compounds were dissolved in DMSO at 400-fold and added so that the final concentration became 10 μM. The plates were then incubated for an additional 48 h followed by the addition of cold TCA to terminate the assay in case of adherent cells. Then, the cells were fixed in situ by cold 50% (w/v) TCA (50 μL; final concentration, 10% TCA) and incubated for 1 h at 4 °C. After discarding the supernatant, the plates were washed 5 times with tap water and air dried. Sulforhodamine B (SRB) solution (100 μL) at 0.4% (w/v) in 1% HOAc was added to each well, and plates were incubated for 10 min. at rt. Then, washing with 1% acetic acid was conducted 5 times to remove the unbound dye followed by air drying. After that, 10 mM trizma base was added to solubilize the bound stain, and the absorbance was read on an automated plate reader at a wavelength of 515 nm. On the other hand, the methodology for suspension cells was the same except that 50 μL of 80% TCA (final concentration, 16% TCA) was gently added to terminate the assay by fixing settled cells at the bottom of the wells. Percentage growth inhibition (GI%) was calculated as follows:
(§3) Growth percentage=Ti (test growth in the presence of compound at 10 µM )−Tz (time zero)/C (control growth)−Tz (time zero)×100 for Ti ≥ Tz;
(§4) Growth percentage=Ti (test growth in the presence of compound at 10 µM )−Tz (time zero)/Tz (time zero)×100 for Ti < Tz.
(§5) where values of 100, 40, 0, −40, and −100 mean no GI, 60% GI, no net G, 40% lethality, and all cells are dead, respectively.

Another assay has as its system UO-31. The experiment in a line: NCI-60 one-dose SRB screening. Conditions: Homo sapiens, UO-31, Renal Cancer, 10 µM one dose, 48 h, read-out: growth percentage. As to the method: as §1, §2, §3, §4, §5
Another assay deals with 786-0. The experiment in a line: NCI-60 one-dose SRB screening. To be noted: Homo sapiens, 786-0, Renal Cancer, 10 µM one dose, 48 h, read-out: growth percentage. How it is done: as §1, §2, §3, §4, §5
A further assay relates to SK-MEL-5. The experiment in a line: NCI-60 one-dose SRB screening. Conditions: Homo sapiens, SK-MEL-5, Melanoma, 10 µM one dose, 48 h, read-out: growth percentage. As to the method: as §1, §2, §3, §4, §5
For the next assay, the system named is U251. The experiment in a line: NCI-60 one-dose SRB screening. Conditions: Homo sapiens, U-251, U251, CNS Cancer, 10 µM one dose, 48 h, read-out: growth percentage. How it is done:
as §1, §2, §3, §4, §5

A further assay concerns MDA-MB-231/ATCC. The experiment in a line: NCI-60 one-dose SRB screening. To be noted: Homo sapiens, Breast Cancer, 10 µM one dose, 48 h, read-out: growth percentage. As to the method:
as §1, §2, §3, §4, §5

The next assay concerns RXF 393. Put plainly: NCI-60 one-dose SRB screening. To be noted: Homo sapiens, RXF 393, Renal Cancer, 10 µM one dose, 48 h, read-out: growth percentage. How it is done:
as §1, §2, §3, §4, §5

Another assay concerns DU-145. The experiment in a line: NCI-60 one-dose SRB screening. To be noted: Homo sapiens, DU-145, Prostate Cancer, 10 µM one dose, 48 h, read-out: growth percentage. As to the method:
as §1, §2, §3, §4, §5

The next assay concerns MALME-3M. Put plainly: NCI-60 one-dose SRB screening. Conditions: Homo sapiens, Melanoma, 10 µM one dose, 48 h, read-out: growth percentage. As to the method:
as §1, §2, §3, §4, §5

The test system of a further assay is A549/ATCC. The experiment in a line: NCI-60 one-dose SRB screening. Conditions: Homo sapiens, Non-Small Cell Lung Cancer, 10 µM one dose, 48 h, read-out: growth percentage. How it is done:
as §1, §2, §3, §4, §5

A further assay has as its system HCT-15. The experiment in a line: NCI-60 one-dose SRB screening. To be noted: Homo sapiens, HCT-15, Colon Cancer, 10 µM one dose, 48 h, read-out: growth percentage. How it is done:
as §1, §2, §3, §4, §5

A further assay relates to M14. Put plainly: NCI-60 one-dose SRB screening. Conditions: Homo sapiens, M14, Melanoma, 10 µM one dose, 48 h, read-out: growth percentage. How it is done:
as §1, §2, §3, §4, §5

For a further assay, the system named is TK-10. Put plainly: NCI-60 one-dose SRB screening. Conditions: Homo sapiens, TK-10, Renal Cancer, 10 µM one dose, 48 h, read-out: growth percentage. How it is done:
as §1, §2, §3, §4, §5

The subject of the next assay is NCI-H522. Put plainly: NCI-60 one-dose SRB screening. To be noted: Homo sapiens, NCI-H522, Non-Small Cell Lung Cancer, 10 µM one dose, 48 h, read-out: growth percentage. How it is done:
as §1, §2, §3, §4, §5

Another assay concerns IGROV1. The experiment in a line: NCI-60 one-dose SRB screening. Conditions: Homo sapiens, IGROV-1, IGROV1, Ovarian Cancer, 10 µM one dose, 48 h, read-out: growth percentage. As to the method: as §1, §2, §3, §4, §5
The subject of a further assay is OVCAR-8. Put plainly: NCI-60 one-dose SRB screening. Conditions: Homo sapiens, OVCAR-8, Ovarian Cancer, 10 µM one dose, 48 h, read-out: growth percentage. As to the method: as §1, §2, §3, §4, §5
Another assay concerns MOLT-4. The experiment in a line: NCI-60 one-dose SRB screening. Conditions: Homo sapiens, MOLT-4, Leukemia, 10 µM one dose, 48 h, read-out: growth percentage. How it is done: as §1, §2, §3, §4, §5
The next assay deals with NCI-H226. Put plainly: NCI-60 one-dose SRB screening. To be noted: Homo sapiens, NCI-H226, Non-Small Cell Lung Cancer, 10 µM one dose, 48 h, read-out: growth percentage. As to the method:
as §1, §2, §3, §4, §5

In another assay the test system is SK-MEL-28. The experiment in a line: NCI-60 one-dose SRB screening. To be noted: Homo sapiens, SK-MEL-28, Melanoma, 10 µM one dose, 48 h, read-out: growth percentage. How it is done:
as §1, §2, §3, §4, §5

For a further assay, the system named is CAKI-1. The experiment in a line: NCI-60 one-dose SRB screening. Conditions: Homo sapiens, CAKI-1, Renal Cancer, 10 µM one dose, 48 h, read-out: growth percentage. How it is done:
as §1, §2, §3, §4, §5

A further assay concerns LOX IMVI. Put plainly: NCI-60 one-dose SRB screening. Conditions: Homo sapiens, Melanoma, 10 µM one dose, 48 h, read-out: growth percentage. As to the method:
as §1, §2, §3, §4, §5

Assay [1] deals with NCI-59 human cancer cell lines. Put plainly: NCI-60 one-dose SRB screening, full panel and subpanels. To be noted: for activity at 10 µM: mean over the full panel, 10 µM one dose, 48 h, SRB, read-out: growth percentage, Mean. As to the method:
as §1, §2, §3, §4, §5
Data are expressed as a one-dose mean graph of growth percentages including the mean, delta, and range.

Take `[O-][n+]1onc(-c2ccccc2)c1COc1ccc(Nc2ncnc3c2cnn3-c2ccccc2)cc1` [6a, 4-phenyl-3-((4-((1-phenyl-1H-pyrazolo[3,4-d]pyrimidin-4-yl)amino)phenoxy)methyl)-1,2,5-oxadiazole 2-oxide]: the activity at 10 µM stood at 96% in the assay with T-47D; 94.2% with UO-31; 115% in the assay on 786-0; 102% in the assay with SK-MEL-5; 107% with U251; 97.5% with MDA-MB-231/ATCC. Moreover, the activity at 10 µM with RXF 393 amounted to 98.4%; with DU-145, 107%; in the assay with MALME-3M, 90%; with A549/ATCC, 96%; in the assay on HCT-15, 54.2%; in the assay on M14, 104%. Moreover, the activity at 10 µM in the assay on TK-10 came to 103%; in the assay with NCI-H522 it was 99.2%; in the assay on IGROV1 it was 95%; with OVCAR-8, 105%; with MOLT-4 it was 87.4%; with NCI-H226 it was 111%. In addition, the activity at 10 µM in the assay with SK-MEL-28 came to 104%; in the assay with CAKI-1, 99.4%; in the assay with LOX IMVI, 94.3%; in [1] (Homo sapiens), 100%. For the same compound, in [1] (full NCI-59 panel, 10 µM), the “mean growth inhibition % (MGI%, GI%)” value is “no mean growth inhibition percentage”.

As for `Cc1nc(Nc2ccc(OCc3c(-c4ccccc4)no[n+]3[O-])cc2)c2cnn(-c3ccccc3)c2n1` [6b, 3-((4-((6-methyl-1-phenyl-1H-pyrazolo[3,4-d]pyrimidin-4-yl)amino)phenoxy)methyl)-4-phenyl-1,2,5-oxadiazole 2-oxide], the activity at 10 µM in the assay on T-47D stood at 106%; in the assay with UO-31, 95%; in the assay with 786-0 it was 95.8%; in the assay with SK-MEL-5 it was 103%; with U251, 104%; in the assay on MDA-MB-231/ATCC, 106%. For the same compound, the activity at 10 µM in the assay with RXF 393 came to 111%; in the assay on DU-145 it was 105%; with MALME-3M, 99.3%; in the assay with A549/ATCC it was 101%; in the assay on HCT-15 it was 96.4%; in the assay with M14, 103%. Also, the activity at 10 µM in the assay on TK-10 was found to be 94.8%; with NCI-H522, 96.3%; with IGROV1, 101%; in the assay on OVCAR-8 it was 105%; in the assay on MOLT-4 it was 117%; in the assay on NCI-H226, 94.7%. For the same compound, the activity at 10 µM in the assay with SK-MEL-28 turned out to be 101%; in the assay on CAKI-1, 87.6%; in the assay with LOX IMVI it was 97.6%; in assay [1] (Homo sapiens) it was 102%. Further, in [1] (full NCI-59 panel, 10 µM), the “enhancement of the growth percentage (mean)” value is on record as 1–5%.

`Cc1nn(-c2ccccc2)c2ncnc(Nc3ccc(OCc4c(-c5ccccc5)no[n+]4[O-])cc3)c12` [6c, 3-((4-((3-methyl-1-phenyl-1H-pyrazolo[3,4-d]pyrimidin-4-yl)amino)phenoxy)methyl)-4-phenyl-1,2,5-oxadiazole 2-oxide]: the activity at 10 µM in the assay with T-47D worked out at 72%; with UO-31, 77%; with 786-0, 107%; in the assay with SK-MEL-5, 90.4%; in the assay on U251, 97.2%; with MDA-MB-231/ATCC it was 95.7%. Also, the activity at 10 µM in the assay on RXF 393 came to 112%; in the assay with DU-145, 106%; in the assay on MALME-3M, 98.2%; in the assay with A549/ATCC, 99.3%; with HCT-15 it was 91.5%; with M14 it was 90.3%. The activity at 10 µM in the assay with TK-10 was found to be 110%; in the assay with NCI-H522, 84.8%; in the assay with IGROV1, 97.1%; with OVCAR-8, 101%; with MOLT-4, 92.9%; in the assay with NCI-H226 it was 97.3%. The activity at 10 µM in the assay on SK-MEL-28 worked out at 102%; in the assay with CAKI-1, 86%; in the assay on LOX IMVI it was 101%; in assay [1] (Homo sapiens), 96.2%. Moreover, the inhibition at 10 µM in assay [1] (Homo sapiens, full NCI-59 panel, 10 µM, read-out: mean growth inhibition % (MGI%, GI%)) is 1.58 to 4.57%.

`Cc1nn(-c2ccc(Br)cc2)c2nc(CCl)[nH]c(=O)c12` [13c]: the activity at 10 µM with T-47D is 91.5%; in the assay with UO-31 it was -90.1%; in the assay with 786-0, 106%; with SK-MEL-5 it was 103%; in the assay with U251, 99.7%; in the assay with MDA-MB-231/ATCC, 94.1%. In addition, the activity at 10 µM in the assay on RXF 393 was 119%; in the assay with DU-145 it was 110%; with MALME-3M it was -9.8%; in the assay on A549/ATCC, 96.9%; in the assay with HCT-15 it was 103%; in the assay on M14 it was 106%. Moreover, the activity at 10 µM in the assay on TK-10 amounted to 111%; with NCI-H522, 85.5%; in the assay on IGROV1, 95.1%; in the assay on OVCAR-8, 102%; in the assay on NCI-H226, 102%; with SK-MEL-28, 99.9%. Also, the activity at 10 µM in the assay on CAKI-1 worked out at 96.3%; in the assay with LOX IMVI, 98.5%; in [1] (Homo sapiens) it was 88.3%.
